Assay: excess molar enthalpy (molar enthalpy of mixing); xn = mol fraction of the nth substance listed
Conditions: Fluid (supercritical or subcritical phases)

C=C(C)C1CC=C(C)CC1 (stereo not given) [1-methyl-4-(1-methylethenyl)cyclohexene] + O=C=O
excess molar enthalpy [kcal/mol]
Conditions | 308.15 K | 313.15 K | 323.15 K
7640 kPa, x2 = 0.105 | – | – | -0.125
7640 kPa, x2 = 0.129 | -0.105 | – | -0.151
7640 kPa, x2 = 0.152 | – | – | -0.188
7640 kPa, x2 = 0.175 | – | – | -0.21
7640 kPa, x2 = 0.196 | -0.174 | – | -0.241
7640 kPa, x2 = 0.218 | – | -0.233 | –
7640 kPa, x2 = 0.238 | -0.211 | -0.258 | -0.31
7640 kPa, x2 = 0.277 | -0.245 | -0.287 | -0.361
7640 kPa, x2 = 0.314 | -0.271 | – | –
7640 kPa, x2 = 0.349 | – | -0.379 | –
7640 kPa, x2 = 0.382 | -0.329 | – | -0.527
7640 kPa, x2 = 0.413 | -0.374 | -0.476 | -0.555
7640 kPa, x2 = 0.442 | -0.391 | – | -0.594
7640 kPa, x2 = 0.47 | – | -0.553 | -0.644
7640 kPa, x2 = 0.492 | – | -0.577 | –
7640 kPa, x2 = 0.497 | -0.435 | – | –
7640 kPa, x2 = 0.522 | -0.466 | – | -0.725
7640 kPa, x2 = 0.546 | – | -0.668 | –
7640 kPa, x2 = 0.569 | – | -0.697 | -0.779
7640 kPa, x2 = 0.591 | -0.533 | – | -0.799
7640 kPa, x2 = 0.596 | – | -0.755 | –
7640 kPa, x2 = 0.613 | – | – | -0.831
7640 kPa, x2 = 0.633 | – | – | -0.868
7640 kPa, x2 = 0.652 | -0.58 | -0.832 | -0.87
7640 kPa, x2 = 0.671 | – | – | -0.817
7640 kPa, x2 = 0.697 | -0.633 | – | -0.755
7640 kPa, x2 = 0.722 | – | – | -0.694
7640 kPa, x2 = 0.738 | – | -0.957 | -0.652
7640 kPa, x2 = 0.753 | – | – | -0.613
7640 kPa, x2 = 0.775 | – | -1.01 | -0.559
7640 kPa, x2 = 0.808 | -0.749 | -1.03 | -0.472
7640 kPa, x2 = 0.839 | – | – | -0.394
7640 kPa, x2 = 0.845 | – | -1.07 | –
7640 kPa, x2 = 0.868 | – | -0.985 | -0.326
7640 kPa, x2 = 0.878 | -0.814 | – | –
7640 kPa, x2 = 0.894 | – | – | -0.257
7640 kPa, x2 = 0.918 | – | -0.617 | -0.191
7640 kPa, x2 = 0.962 | – | – | -0.0853
7640 kPa, x2 = 0.97 | -0.848 | – | –
7640 kPa, x2 = 0.972 | -0.842 | – | –
7640 kPa, x2 = 0.985 | – | -0.153 | –
10000 kPa, x2 = 0.058 | – | -0.00359 | 0.00287
10000 kPa, x2 = 0.111 | 0.0136 | -0.00526 | –
10000 kPa, x2 = 0.136 | 0.0134 | -0.00741 | –
10000 kPa, x2 = 0.16 | – | – | -0.0208
10000 kPa, x2 = 0.207 | 0.0184 | -0.0117 | -0.0535
10000 kPa, x2 = 0.25 | 0.0182 | -0.0151 | -0.0853
10000 kPa, x2 = 0.29 | – | -0.0182 | -0.117
10000 kPa, x2 = 0.328 | 0.0194 | – | –
10000 kPa, x2 = 0.358 | – | – | -0.18
10000 kPa, x2 = 0.363 | – | -0.0294 | –
10000 kPa, x2 = 0.38 | – | -0.0392 | –
10000 kPa, x2 = 0.397 | 0.0146 | – | –
10000 kPa, x2 = 0.428 | 0.011 | -0.0416 | -0.248
10000 kPa, x2 = 0.486 | 0.0043 | – | -0.301
10000 kPa, x2 = 0.513 | – | -0.065 | –
10000 kPa, x2 = 0.526 | – | -0.0743 | –
10000 kPa, x2 = 0.538 | – | – | -0.357
10000 kPa, x2 = 0.548 | -0.00741 | – | –
10000 kPa, x2 = 0.562 | -0.00908 | -0.082 | -0.383
10000 kPa, x2 = 0.585 | – | – | -0.402
10000 kPa, x2 = 0.627 | – | -0.105 | -0.437
10000 kPa, x2 = 0.666 | -0.0354 | -0.118 | -0.473
10000 kPa, x2 = 0.71 | -0.0492 | -0.14 | –
10000 kPa, x2 = 0.75 | -0.0612 | -0.15 | -0.551
10000 kPa, x2 = 0.785 | -0.0746 | -0.173 | –
10000 kPa, x2 = 0.801 | – | – | -0.585
10000 kPa, x2 = 0.818 | -0.0903 | – | -0.604
10000 kPa, x2 = 0.875 | -0.105 | -0.198 | -0.627
10000 kPa, x2 = 0.923 | -0.105 | -0.199 | -0.612
10000 kPa, x2 = 0.94 | -0.0985 | – | –
10000 kPa, x2 = 0.964 | -0.0803 | -0.146 | –
10000 kPa, x2 = 0.972 | – | – | -0.41
10000 kPa, x2 = 0.983 | -0.0495 | – | –
10000 kPa, x2 = 0.986 | – | -0.0834 | -0.243

From the NIST ThermoML archive (doi:10.1016/j.fluid.2006.05.027)
